Patent US5783449A (priority 1996, dated 1998)

Columns and labels:
[1] = in vivo
Procedure: (§1) The BAC readings used in tables 1 and 2 were obtained using breath samples taken with the INTOXIMETER EC/IR 3000 made by Intoximeters, Inc. of St. Louis, Mo. This device has a rated accuracy of ±0.001 (1 mg/dl). The machine was reprogrammed to increase ethanol values by five percent from factory settings to more accurately reflect actual BAC.

clinical = conditions: in vivo
Description: Even though ethanol elimination begins at very outset of consumption, formally the process breaks out from an apex into a pharmacokinetical curve--the break point of a neutralizing reaction against extreme absorption-distribution action.
AUCabs-distr is the absorption-distribution of ethanol and is equal to the AUC under the ascending part of the curve;
AUCpostabs +AUCdistr is a sum of the postabsorption and distribution of ethanol and is equal to the AUC between the ascending and descending part of the plotted curve. Because most pharmacokinetical cases have a triangle-like shape for the curve, it obviously has no value. However, if the value occurs (in a case with a trapezium-like shape for the curve) it disregards from calculation, because proportional representation for this internal rectangular-like composite AUC is the same as the Index-K value;
and AUCelim is the elimination of ethanol and is equal to the AUC under the descending part of the pharmacokinetical curve.
(§2) To verify the results, after ethanol consumption, BAC levels were repeatedly measured by INTOXIMETER EC/IR 3000, until two successive zero BAC measurements were obtained. […] A special electrochemical membrane measured oxidation by transdermal ethanol. The resulting current measured is expressed in micro Amperes (μA) and was automatically multiplied by 35 for TAS#37; by 40 for TAS#34, TAS#39, or by 45 for TAS#33 depending on type of construction for the device.
BAC tests were conducted on 83 volunteer individuals, 48 of whom were non-alcoholic males, 27 of whom were non-alcoholic females and 8 of whom were alcoholic males.
This dose was divided into three equal parts.
as §1

[2] = in vivo; remark: listed apart in the source
Description: as §2

[3] = system: Microsomal Ethanol-Oxidation System (MEOS); conditions: human body; stated as well known; cited from earlier work

SMILES: CCO [alcohol, ethanol]
- blood/breath ratio [1]: 0.994
- Time to peak (clinical; human, po): 66 '
- peak in the BAC (clinical; human, po): 68.2 (s.d.=8.98)
- Cmax (clinical; human, po, peak in the BAC): 697 µg/mL
- ratio of Index-K between alcoholic and non-alcoholic drinkers (clinical): about twice
- Index-K (range over methods) [2]: 1.9-1.97
- variation in the amplitude of the curves [2]: 2.7 fold
- variation of the elimination time [2]: 1.9 fold
- variation of the time to peak [2]: 1.7 fold
- fraction of consumed alcohol destroyed by MEOS [3]: approximately one-fifth
